Laboratory results as given in patent publication US20210002263A1, “HETEROARYLPYRIMIDINE COMPOUND AND FORMULATION FOR CONTROLLING HARMFUL ORGANISMS” (Nippon Soda Co., Ltd., priority 2018, published 2021).

Columns and labels:
Mythimna separata = experiment: Efficacy test against Mythimna separata (treated artificial feed); assay type: in vivo; settings: 1 μl of Emulsion (I) (5% active ingredient) in 0.8 g artificial feed; second-instar larvae; 25° C.; fifth day
Description: (§1) 5 parts of the compound of the present invention, 93.6 parts of dimethylformamide and 1.4 parts of polyoxyethylene alkyl aryl ether were mixed and dissolved to prepare Emulsion (I) including 5% of an active ingredient.
For the control, Emulsion (II) was prepared by mixing and dissolving 93.6 parts of dimethylformamide and 1.4 parts of polyoxyethylene alkyl aryl ether.
(§2) An insect mortality rate was calculated by the numerical equation shown below.
(§3) Insect mortality rate (%)={(Number of dead insects)/(Number of sample insects)}×100
0.8 g of a commercially available artificial feed (Insecta LFS, manufactured by Nosan Corporation) and 1 μl of Emulsion (I) were mixed thoroughly. Thereby, a test feed was obtained.
The test feed was placed in an amount of 0.2 g in each of the treatment areas of a plastic test container (volume: 1.4 ml). Subsequently, two second-instar larvae of Mythimna separata were inoculated into each treatment area, and the test container was sealed with a plastic lid in order to prevent the larvae from escaping. The sealed container was placed in a thermostatic chamber at 25° C., and the insect mortality rate and the amount of feed consumed were determined on the fifth day. The test was performed twice.
As the control areas, the insect mortality rate and the amount of feed consumed were determined in the same manner as that described in Test Example 1, with the exception of replacing Emulsion (I) with Emulsion (II).

Plutella xylostella = experiment: Efficacy test against Plutella xylostella (cabbage leaf dip); assay type: in vivo; settings: foliar, 72 h, cabbage leaves soaked 30 seconds, second-instar larvae, 3 days after inoculation, read-out: insect mortality rate
Description: as §1, §2, §3
Emulsion (I) was diluted with water so that the concentration of the compound of the present invention was 125 ppm. Cabbage leaves were soaked in the diluted liquid for 30 seconds. Subsequently, the cabbage leaves were put on Petri dishes, followed by inoculating 5 second-instar larvae of Plutella xylostella. The Petri dishes were placed in a thermostatic chamber at a temperature of 25° C. and humidity of 60%. Mortality was investigated 3 days after inoculation, and the insect mortality rate was calculated. The test was performed twice.

Aphis craccivora = experiment: Efficacy test against Aphis craccivora (spray on black-eyed pea plants); assay type: in vivo; settings: in Vigna unguiculata, 96 h, sprayed on black-eyed pea plants, nymphs, 4 days after spraying, read-out: insect mortality rate
Description: as §1, §2, §3
Black-eyed pea plants were raised in No. 3 pots and the primary leaves were inoculated with nymphs of Aphis craccivora. Emulsion (I) was diluted with water so that the concentration of the compound of the present invention was 125 ppm. Subsequently, the aforementioned diluted liquid was sprayed on the black-eyed pea plants on which the nymphs of Aphis craccivora were parasitic. The aforementioned black-eyed pea plants were then placed in a thermostatic chamber with a temperature of 25° C. and humidity of 60%. Mortality was investigated 4 days after spraying was carried out, and the insect mortality rate of Aphis craccivora was calculated. The test was performed twice.

Phyllotreta striolata = experiment: Efficacy test against Phyllotreta striolata (spray on bok-choi seedlings); assay type: in vivo; settings: 168 h, sprayed on bok-choi seedlings, adults, 7 days after inoculation, read-out: insect mortality rate
Description: as §1, §2, §3
Emulsion (I) was diluted with water so that the concentration of the compound of the present invention was 125 ppm, to prepare a diluted liquid for testing. The aforementioned diluted liquid was sprayed on bok-choi seedlings (7th major leaf-development period) planted in No. 3 pots. After the bok-choi seedlings were subjected to air-drying, the seedlings were placed in plastic cups, followed by inoculating 10 adult Phyllotreta striolata. The plastic cups were stored in a thermostatic chamber at a temperature of 25° C. and humidity of 65%. Mortality was investigated 7 days after inoculation, and the insect mortality rate was calculated. The test was performed twice.

Nilaparvata lugens = experiment: Efficacy test against Nilaparvata lugens (rice seedling dip); assay type: in vivo; settings: 168 h, rice seedlings soaked 30 seconds, second-instar larvae, 7 days after inoculation, read-out: insect mortality rate
Description: as §1, §2, §3
Emulsion (I) was diluted with water so that the concentration of the compound of the present invention was 125 ppm. Rice seedlings were soaked in the diluted liquid for 30 seconds, and subjected to air-drying. Subsequently, the rice seedlings were placed in plastic cases, followed by inoculating 5 second-instar larvae of Nilaparvata lugens. The plastic cases were placed in a thermostatic chamber at a temperature of 25° C. and humidity of 65%. Mortality was investigated 7 days after inoculation, and the insect mortality rate was calculated. The test was performed twice.

CCS(=O)(=O)c1cnc(-c2ncccn2)nc1-c1nc2cc(SC(F)(F)F)ccc2o1 [A-7, 2-(5-(ethylsulfonyl)-[2,2′-bipyrimidin]-4-yl)-5-((trifluoromethyl)thio)benzo[d]oxazole]
melting point: 223 to 225 °C

CCS(=O)(=O)c1cnc(-n2nccc2N)nc1-c1nc2cc(C(F)(F)F)cnc2n1C [A-27, 1-(5-(ethylsulfonyl)-4-(3-methyl-6-(trifluoromethyl)-3H-imidazo[4,5-b]pyridin-2-yl)pyrimidin-2-yl)-1H-pyrazol-5-amine]
melting point: 247 to 249 °C

CCS(=O)(=O)c1cnc(N)nc1-c1nc2cc(C(F)(F)F)cnc2n1C [A-13]
insect mortality rate or amount of feed consumed relative to control area (Mythimna separata): mortality rate against Mythimna separata was 100%, or the amount of feed consumed was 10% or less

CCS(=O)(=O)c1cnc(-n2ccc(N)n2)nc1-c1nc2cc(C(F)(F)F)cnc2n1C [A-25]
insect mortality rate or amount of feed consumed relative to control area (Mythimna separata): mortality rate against Mythimna separata was 100%, or the amount of feed consumed was 10% or less

CCS(=O)(=O)c1cnc(-c2ncccn2)nc1-c1nc2cc(S(=O)(=O)C(F)(F)F)ccc2o1 [A-9, 2-(5-(ethylsulfonyl)-[2,2′-bipyrimidin]-4-yl)-5-((trifluoromethyl)sulfonyl)benzo[d]oxazole]
melting point: 118 to 124 °C

CCOC(=O)c1cnn(-c2ncc(S(=O)(=O)CC)c(-c3nc4cc(C(F)(F)F)cnc4n3C)n2)c1N [A-26, ethyl 5-amino-1-(5-(ethylsulfonyl)-4-(3-methyl-6-(trifluoromethyl)-3H-imidazo[4,5-b]pyridin-2-yl)pyrimidin-2-yl)-1H-pyrazole-4-carboxylate]
mortality at 125 ppm (Plutella xylostella): ≥ 80%
mortality at 125 ppm (Aphis craccivora): ≥ 80%
insect mortality rate or amount of feed consumed relative to control area (Mythimna separata): mortality rate against Mythimna separata was 100%, or the amount of feed consumed was 10% or less
mortality at 125 ppm (Phyllotreta striolata): ≥ 80%

CCS(=O)(=O)c1cnc(-c2ncccn2)nc1-c1nc2cc(C(F)(F)F)cnc2n1C [A-2, 2-(5-(ethylsulfonyl)-[2,2′-bipyrimidin]-4-yl)-3-methyl-6-(trifluoromethyl)-3H-imidazo[4,5-b]pyridine]
mortality at 125 ppm (Plutella xylostella): ≥ 80%
mortality at 125 ppm (Aphis craccivora): ≥ 80%
mortality at 125 ppm (Nilaparvata lugens): ≥ 80%
insect mortality rate or amount of feed consumed relative to control area (Mythimna separata): mortality rate against Mythimna separata was 100%, or the amount of feed consumed was 10% or less
mortality at 125 ppm (Phyllotreta striolata): ≥ 80%

CCS(=O)(=O)c1cnc(N(C)C)nc1-c1nc2cc(C(F)(F)F)cnc2n1C [A-17]
insect mortality rate or amount of feed consumed relative to control area (Mythimna separata): mortality rate against Mythimna separata was 100%, or the amount of feed consumed was 10% or less

CCS(=O)(=O)c1cnc(-n2ncnc2N)nc1-c1nc2cc(C(F)(F)F)cnc2n1C [A-12, 1-(5-(ethylsulfonyl)-4-(3-methyl-6-(trifluoromethyl)-3H-imidazo[4,5-b]pyridin-2-yl)pyrimidin-2-yl)-1H-1,2,4-triazol-5-amine]
mortality at 125 ppm (Plutella xylostella): ≥ 80%
mortality at 125 ppm (Nilaparvata lugens): ≥ 80%
insect mortality rate or amount of feed consumed relative to control area (Mythimna separata): mortality rate against Mythimna separata was 100%, or the amount of feed consumed was 10% or less
mortality at 125 ppm (Phyllotreta striolata): ≥ 80%

CCS(=O)(=O)c1cnc(N)nc1-c1nc2cc(SC(F)(F)F)ccc2o1 [A-10]
insect mortality rate or amount of feed consumed relative to control area (Mythimna separata): mortality rate against Mythimna separata was 100%, or the amount of feed consumed was 10% or less

CCS(=O)(=O)c1cnc(NC)nc1-c1nc2cc(C(F)(F)F)cnc2n1C [A-16]
insect mortality rate or amount of feed consumed relative to control area (Mythimna separata): mortality rate against Mythimna separata was 100%, or the amount of feed consumed was 10% or less

CCS(=O)(=O)c1cnc(-c2ncn(C)n2)nc1-c1nc2cc(C(F)(F)F)cnc2n1C [A-5]
insect mortality rate or amount of feed consumed relative to control area (Mythimna separata): mortality rate against Mythimna separata was 100%, or the amount of feed consumed was 10% or less

CCS(=O)(=O)c1cnc(NN)nc1-c1nc2cc(C(F)(F)F)cnc2n1C [A-24, 2-(5-(ethylsulfonyl)-2-hydrazineylpyrimidin-4-yl)-3-methyl-6-(trifluoromethyl)-3H-imidazo[4,5-b]pyridine]
melting point: 227 to 229 °C

CCS(=O)(=O)c1cnc(-c2ncccn2)nc1-c1nc2cc([S+]([O-])C(F)(F)F)ccc2o1 (stereo not drawn) [A-8, 2-(5-(ethylsulfonyl)-[2,2′-bipyrimidin]-4-yl)-5-((trifluoromethyl)sulfinyl)benzo[d]oxazole]
melting point: 192 to 195 °C

CCS(=O)(=O)c1cnc(NCCN)nc1-c1nc2cc(C(F)(F)F)cnc2n1C [A-28]
insect mortality rate or amount of feed consumed relative to control area (Mythimna separata): mortality rate against Mythimna separata was 100%, or the amount of feed consumed was 10% or less

CCS(=O)(=O)c1cnc(OC)nc1-c1nc2cc(C(F)(F)F)cnc2n1C [A-23]
insect mortality rate or amount of feed consumed relative to control area (Mythimna separata): mortality rate against Mythimna separata was 100%, or the amount of feed consumed was 10% or less

CCS(=O)(=O)c1cnc(-n2cccn2)nc1-c1nc2cc(C(F)(F)F)cnc2n1C [A-20]
insect mortality rate or amount of feed consumed relative to control area (Mythimna separata): mortality rate against Mythimna separata was 100%, or the amount of feed consumed was 10% or less
